Results: patent US20100035926A1, “PYRAZOLE DERIVATIVES AS NON-STEROIDAL GLUCOCORTICOID RECEPTOR LIGANDS” (priority 2006, published 2010)

Experiments:
GR = molecular target: T1, GR (Homo sapiens, UniProt P04150); experiment: GR Agonist Assay - MMTV Assay (A549 MMTV cells, renilla luciferase reporter); type: cell-based; settings: 6 h, agonists, read-out: average maximum asymptote in the MMTV agonist assay
T1 construct: endogenous in cells; host or cells: A549 (human lung carcinoma, ECACC No. 86012804), stably transfected with reporter plasmids only
T1 sequence (P04150 1-777): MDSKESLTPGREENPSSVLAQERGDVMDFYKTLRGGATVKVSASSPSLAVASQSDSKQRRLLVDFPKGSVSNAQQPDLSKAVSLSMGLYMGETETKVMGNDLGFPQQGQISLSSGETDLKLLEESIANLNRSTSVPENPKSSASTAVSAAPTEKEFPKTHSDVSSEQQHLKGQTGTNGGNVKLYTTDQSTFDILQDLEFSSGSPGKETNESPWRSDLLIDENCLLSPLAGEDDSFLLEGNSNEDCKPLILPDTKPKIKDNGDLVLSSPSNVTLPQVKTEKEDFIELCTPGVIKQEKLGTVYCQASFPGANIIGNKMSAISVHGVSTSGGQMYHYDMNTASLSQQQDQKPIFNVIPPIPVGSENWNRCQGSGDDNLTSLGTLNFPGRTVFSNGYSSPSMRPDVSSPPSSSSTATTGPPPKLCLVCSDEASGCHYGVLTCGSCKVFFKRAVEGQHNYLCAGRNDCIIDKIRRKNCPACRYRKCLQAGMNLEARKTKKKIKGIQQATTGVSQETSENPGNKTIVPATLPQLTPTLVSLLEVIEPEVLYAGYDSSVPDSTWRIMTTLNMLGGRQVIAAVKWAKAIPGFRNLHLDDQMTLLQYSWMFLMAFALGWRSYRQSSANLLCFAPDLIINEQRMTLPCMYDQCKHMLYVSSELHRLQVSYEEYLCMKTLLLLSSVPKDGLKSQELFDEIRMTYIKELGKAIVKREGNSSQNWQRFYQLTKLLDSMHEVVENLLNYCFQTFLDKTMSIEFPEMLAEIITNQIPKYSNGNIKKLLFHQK
In short: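 Stably transfected A549 MMTV cells carry a GR-driven luciferase reporter. Cells at 0.1×10^6/ml in DMEM with 10% FCS and 25 mM HEPES were added to wells containing compound. After detection reagent, plates were held about 15 mins at room temperature and luminescence was read.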

[1] = Assay for Brain Penetrance; type: in vivo; settings: brain and plasma, rat, single intravenous dose 1 mg/kg, read-out: brain to plasma ratio
Description: Each rat received a single intravenous dose at a level of 1 mg/kg. The dose was formulated in 10% DMSO/50% PEG200/40% sterile water. Terminal blood samples were taken at 5 or 15 mins after dosing, by cardiac puncture following anaesthesia with isofluorane. The brains were removed at the same time point.
The compounds were extracted from 20 μL plasma by protein precipitation using 120 μL acetonitrile containing an analogue compound as an internal standard. The filtered extracts were collected into a 96 well plate and were diluted with an equal volume of 10% acetonitrile containing 0.1% formic acid in water (v/v). The plate was then mixed on a plate shaker for at least 5 mins before analysis by LC-MS/MS against a calibration line prepared in control plasma.
Each brain was weighed, then homogenised in 3 ml acetonitrile:water (10:90v/v). The compounds were extracted from 200 μL of the resulting homogenate by protein precipitation using 600 μL acetonitrile containing an analogue compound as an internal standard. The extracts were centrifuged and 150 μl of each was filtered and transferred to a 96 well plate. The aliquot was diluted with 10% acetonitrile containing 0.1% formic acid in water (v/v). The plate was mixed on a plate shaker for at least 5 mins before analysis by LC-MS/MS against a calibration line prepared in control brain homogenate.

| Compound | Emax (GR) [%] | Kp at 5 min [1] |
| --- | --- | --- |
| Nc1c(C(=O)NCC(O)(CN(CCF)C(=O)c2ccccc2)C(F)(F)F)cnn1-c1ccc(F)cc1 (racemic) [Example 1 (racemic), 5-Amino-1-(4-fluorophenyl)-N-(3,3,3-trifluoro-2-{[(2-fluoroethyl)(phenylcarbonyl)amino]methyl}-2-hydroxypropyl)-1H-pyrazole-4-carboxamide] | ≥ 40 | ≥ 0.1 |
| Nc1c(C(=O)NCC(O)(CN(CCF)C(=O)c2ccccc2F)C(F)(F)F)cnn1-c1ccc(F)cc1 (racemic) [Example 2 (racemic), 5-Amino-1-(4-fluorophenyl)-N-[3,3,3-trifluoro-2-([(2-fluoroethyl)[(2-fluorophenyl)carbonyl]amino]methyl)-2-hydroxypropyl]-1H-pyrazole-4-carboxamide] | ≥ 40 | ≥ 0.1 |
| CCN(CC(O)(CNC(=O)c1cnn(-c2ccc(F)cc2)c1N)C(F)(F)F)C(=O)c1cccc(F)c1F (racemic) [Example 5 (racemic), 5-Amino-N-(2-{[[(2,3-difluorophenyl)carbonyl](ethyl)amino]methyl}-3,3,3-trifluoro-2-hydroxypropyl)-1-(4-fluorophenyl)-1H-pyrazole-4-carboxamide] | ≥ 40 | ≥ 0.1 |
